Results reported in patent US20250288568A1, “NEW CRYSTAL FORM OF A PDE4 INHIBITOR” (CHIESI FARMACEUTICI S.P.A., priority 2022, published 2025).
≈ marks a conversion by molar mass, not a printed value.

Assays:
[1] = Solubility in Simulated Lung Fluid (SLF), saturation shake-flask method; type: physicochemical; conditions: for solubility at 0.5 h / solubility at 1 h / solubility at 3 h: simulated lung fluid (SLF), aqueous with cosolvent or surfactant or cyclodextrin, thermodynamic from solid, SLF with 0.02% v/v Tween 80, pH 6.5, 37° C.
Method: A study of solubility in SLF for the characterization of the crystal Form 2 and crystal Form A of the compound of formula (I), was performed. The use of SLF, that mimics the physiologically lung fluid, can give a good understanding of the dissolution mechanism and possible in vivo behavior of a product, enhancing the predictive capability of the dissolution testing in terms of bioavailability and therapeutic effectiveness.
The experimental method used is based on saturation shake-flask method. The samples were prepared by adding, respectively, an excess of the crystal Form 2 of the compound of formula (I) and an excess of the crystal Form A of the compound of formula (I), to the solubility medium SLF. The solubility concentration value is the thermodynamic equilibrium concentration, determined by assaying the solute concentration of the filtrate from a saturated solution, using an analytical method by UPLC-MS (MRM quantification; calibration: from 0.01 to 10 μg/ml; every batch have been tested in duplicate and samples have been filtered and diluted 1/10 in duplicate).
The SLF used for the tests were prepared analogously to literature (Simulated Biological Fluids with Possible Application in Dissolution Testing, Dissolution Technologies, 2011, dx.doi.org/10.14227/DT180311P15, table 11, page 2215). To mimic better the lung fluid, a surfactant, particularly Tween 80, has been added (0.02% v/v).
The solubility profile of the crystal Form 2 and the crystal Form A of the compound of formula (I) was determined in SLF adjusted with acetic acid (1M) to pH of 6.5, in order to simulate an inflammation condition in the lung. The experiment was conducted at 37° C.
The following experimental conditions were applied for the SLF dissolution profile study respectively for the crystal Form 2 and the crystal Form A of the compound of formula (I). About 2.5 mg of the crystal Form 2 or the crystal Form A of the compound of formula (I) was dispersed in 2.5 ml of SLF with stirring system. The concentration of material in solution was determined after 0.5, 1 and 3 hours. In each time interval, the vessel stirring was stopped, and 180-250 μl of each samples have been collected and filtered by RC Membrane Syringe Filters 0.45 μm and injected in UPLC apparatus.

[2] = Lung PK after intratracheal administration to Sprague-Dawley rats (PreciseInhale system); type: in vivo; conditions: rat, inhaled or intranasal, male Sprague-Dawley rats, 10 μg/lung deposited dose
Method: Crystal Form 2 of the compound of formula (I) was intratracheally administered to Sprague-Dawley rats using the PreciseInhale system at the dose of 10 μg/lung deposited dose. Powder aerosols was generated using 40 bar generating pressure. A total number of 24 Sprague-Dawley male rats was used for PK investigation; 8 time points for each study, n=3 rats/time point. Before administration, rats were anesthetized with sevoflurane and endotracheally intubated using appropriate steel catheters. Aerosol administration was performed connecting the catheter to the PreciseInhale system, previously set to deliver 10 μg/lung deposited dose to each animal.
Lung t1/2 is the terminal half-life, calculated by the formula ln(2)/λz, where λz is the first-order rate constant associated with the terminal (log-linear) portion of the curve. Estimated by linear regression of time vs. log concentration; i.e. the time it takes for the concentration of the drug in the lung to be reduced by 50%.
Lung MRTlast is the mean residence time from the time of dosing to the time of the last measurable concentration; i.e. the average time a molecule stays in the lung.

solubility at 0.5 h [1] [µg/mL]	solubility at 1 h [1] [µg/mL]	solubility at 3 h [1] [µg/mL]	Higher solubility in SLF with respect to the crystal Form A ([1]; crystal Form 2 vs crystal Form A, SLF, at 0.5, 1 and 3 hours)	MRT last ([2]; mean residence time to last measurable concentration, read-out: Lung MRTlast) [h]	half-life ([2]; terminal half-life in lung, read-out: Lung t1/2 (converted)) [h]	SMILES
0.16 (≈ 0.233 µM)	0.18 (≈ 0.262 µM)	0.2 (≈ 0.291 µM)	–	–	–	CS(=O)(=O)Nc1ccc(C(=O)O[C@@H](Cc2c(Cl)c[n+]([O-])cc2Cl)c2ccc(OC(F)F)c(OCC3CC3)c2)cc1OCC1CC1 [Crystal Form A, 3,5-dichloro-4-[(2S)-2-[3-(cyclopropylmethoxy)-4-(difluoromethoxy)phenyl]-2-{[3-(cyclopropylmethoxy)-4-(methanesulfonamido)benzoyl]oxy}ethyl]pyridine1-oxide, reference compound]
0.74 (≈ 1.08 µM)	0.89 (≈ 1.29 µM)	0.88 (≈ 1.28 µM)	at least 4.5 fold	9.4	7.7	CS(=O)(=O)Nc1ccc(C(=O)O[C@@H](Cc2c(Cl)c[n+]([O-])cc2Cl)c2ccc(OC(F)F)c(OCC3CC3)c2)cc1OCC1CC1 (single isomer, unassigned) [Crystal Form 2]
